Source: PubChem BioAssay AID330 (DTP/NCI, 2004)
Inconclusive results and toxic doses are left out. The calls were made as follows: active = survival T/C of 150% or more; inactive = T/C below 125% in these data.

Tested on: P388 leukemia ip, CD2F1 mice, survival T/C
Assay: NCI In Vivo Anticancer Drug Screen. Data for tumor model P388 Leukemia (intraperitoneal) in CD2F1 (CDF1) mice
Settings: endpoint: median survival time, higher = longer survival
Method in brief: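 Mice carrying the transplanted tumor received test compound or vehicle. Survival was recorded in each group, and the value is the treated-group measurement divided by that of the vehicle-treated control group.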

[1] = dose: 60.0 mg/kg/injection, schedule: Q01DX005 (ip), vehicle: Klucel (hydroxypropylcellulose) (HPC)
[2] = dose: 120.0 mg/kg/injection, schedule: Q01DX005 (ip), vehicle: Klucel (hydroxypropylcellulose) (HPC)
[3] = dose: 240.0 mg/kg/injection, schedule: Q01DX005 (ip), vehicle: Klucel (hydroxypropylcellulose) (HPC)
[4] = dose: 60.0 mg/kg/injection, schedule: Q01DX005 (ip), vehicle: saline with Tween-80
[5] = dose: 120.0 mg/kg/injection, schedule: Q01DX005 (ip), vehicle: saline with Tween-80
[6] = dose: 240.0 mg/kg/injection, schedule: Q01DX005 (ip), vehicle: saline with Tween-80

Measured: T/C

CN(C)CCC[N+](C)(C)Cc1ccc(C[N+](C)(C)CCC[N+](C)(C)Cc2ccc(CCl)cc2)cc1
inactive: dose: 12.5 mg/kg/injection, schedule: Q01DX009 (ip), vehicle: saline 106 % of control | dose: 25.0 mg/kg/injection, schedule: Q01DX009 (ip), vehicle: saline 92 % of control

CCCCN(CCCC)c1nsc(N2CCCCC2)n1
inactive: dose: 45.0 mg/kg/injection, schedule: Q01DX009 (ip), vehicle: saline with Tween-80 113 % of control | dose: 90.0 mg/kg/injection, schedule: Q01DX009 (ip), vehicle: saline with Tween-80 117 % of control | dose: 180.0 mg/kg/injection, schedule: Q01DX009 (ip), vehicle: saline with Tween-80 118 % of control

COc1ccc(/C=C2/C(=O)N(c3ccccc3)N=C2C)cc1
inactive: [1] 107 % of control | [2] 104 % of control | [3] 107 % of control

C/C1=C2N=C(/C=C3N=C(/C(C)=C4\[N-]C(C(CC(N)=O)C4(C)CCC(=O)NCC(C)OP(=O)(O)OC4C(CO)OC(n5cnc6cc(C)c(C)cc65)C4O)C4(C)N=C1C(CCC(N)=O)C4(C)CC(N)=O)C(CCC(N)=O)C\3(C)C)C(CCC(N)=O)C/2(C)CC(N)=O.[CH2-]C1OC(n2cnc3c(N)ncnc32)C(O)C1O.[Co+2] (stereo unspecified)
inactive: dose: 8.8 micrograms/kg/injection, schedule: Q#A X Z (ip), vehicle: water 90 % of control | dose: 88.3 micrograms/kg/injection, schedule: Q#A X Z (ip), vehicle: water 97 % of control | dose: 8830.0 micrograms/kg/injection, schedule: Q#A X Z (ip), vehicle: water 89 % of control

COc1ccc(C(C)(C)c2cc3c(cc2OCCO)OCO3)cc1
inactive: [4] 96 % of control | [5] 101 % of control | [6] 105 % of control

C(=NCCC[Si]12OCCN(CCO1)CCO2)c1c[nH]c2ccccc12
inactive: dose: 50.0 mg/kg/injection, schedule: Q01DX005 (ip), vehicle: Klucel (hydroxypropylcellulose) (HPC) 104 % of control | dose: 100.0 mg/kg/injection, schedule: Q01DX005 (ip), vehicle: Klucel (hydroxypropylcellulose) (HPC) 103 % of control | dose: 200.0 mg/kg/injection, schedule: Q01DX005 (ip), vehicle: Klucel (hydroxypropylcellulose) (HPC) 102 % of control

Cc1ccn(C(=O)C2=Cc3ccccc3OC2)c(=N)c1
inactive: dose: 100.0 mg/kg/injection, schedule: Q04DX003 (ip), vehicle: Klucel (hydroxypropylcellulose) (HPC) 106 % of control | dose: 200.0 mg/kg/injection, schedule: Q04DX003 (ip), vehicle: Klucel (hydroxypropylcellulose) (HPC) 103 % of control | dose: 400.0 mg/kg/injection, schedule: Q04DX003 (ip), vehicle: Klucel (hydroxypropylcellulose) (HPC) 100 % of control

Cc1c(C2Nc3ccccc3C2C)[nH]c2ccccc12 (stereo unspecified)
inactive: dose: 50.0 mg/kg/injection, schedule: Q01DX005 (ip), vehicle: saline with Tween-80 104 % of control | dose: 100.0 mg/kg/injection, schedule: Q01DX005 (ip), vehicle: saline with Tween-80 100 % of control | dose: 200.0 mg/kg/injection, schedule: Q01DX005 (ip), vehicle: saline with Tween-80 103 % of control

O=C1NCCc2ccc(cc2)OCCC(=O)N2CCCC12 (stereo unspecified)
inactive: dose: 35.0 mg/kg/injection, schedule: Q01DX005 (ip), vehicle: Klucel (hydroxypropylcellulose) (HPC) 107 % of control | dose: 70.0 mg/kg/injection, schedule: Q01DX005 (ip), vehicle: Klucel (hydroxypropylcellulose) (HPC) 104 % of control | dose: 140.0 mg/kg/injection, schedule: Q01DX005 (ip), vehicle: Klucel (hydroxypropylcellulose) (HPC) 98 % of control

Cc1nc(Nc2c3ccccc3nc3ccccc23)sc1C
inactive: dose: 12.5 mg/kg/injection, schedule: Q04DX002 (ip), vehicle: distilled water + Tween-80 103 % of control | dose: 25.0 mg/kg/injection, schedule: Q04DX002 (ip), vehicle: distilled water + Tween-80 100 % of control | dose: 50.0 mg/kg/injection, schedule: Q04DX002 (ip), vehicle: distilled water + Tween-80 88 % of control | dose: 100.0 mg/kg/injection, schedule: Q04DX002 (ip), vehicle: distilled water + Tween-80 87 % of control | dose: 200.0 mg/kg/injection, schedule: Q04DX002 (ip), vehicle: distilled water + Tween-80 90 % of control | dose: 400.0 mg/kg/injection, schedule: Q04DX002 (ip), vehicle: distilled water + Tween-80 98 % of control

COc1cc(C=Nc2ccc3c(c2)OCO3)cc(OC)c1OC
inactive: [4] 103 % of control | [5] 100 % of control | [6] 86 % of control

CCOC(=O)C1=C(C)Oc2cc3c(cc2C1c1ccc(OC)cc1)OCO3 (stereo unspecified)
inactive: [4] 105 % of control | [5] 105 % of control | [6] 94 % of control

O=Cc1cc2c(Cl)nccc2o1
inactive: [1] 105 % of control | [2] 102 % of control | [3] 104 % of control
